Calls of active or inactive are those of the source. The calls are words filed in the database; no cut-off is given here.
Test system: ALK tyrosine kinase receptor (Homo sapiens), Q9UM73 [L1196M]
Sequence (Q9UM73 whole entry L1196M, looked up): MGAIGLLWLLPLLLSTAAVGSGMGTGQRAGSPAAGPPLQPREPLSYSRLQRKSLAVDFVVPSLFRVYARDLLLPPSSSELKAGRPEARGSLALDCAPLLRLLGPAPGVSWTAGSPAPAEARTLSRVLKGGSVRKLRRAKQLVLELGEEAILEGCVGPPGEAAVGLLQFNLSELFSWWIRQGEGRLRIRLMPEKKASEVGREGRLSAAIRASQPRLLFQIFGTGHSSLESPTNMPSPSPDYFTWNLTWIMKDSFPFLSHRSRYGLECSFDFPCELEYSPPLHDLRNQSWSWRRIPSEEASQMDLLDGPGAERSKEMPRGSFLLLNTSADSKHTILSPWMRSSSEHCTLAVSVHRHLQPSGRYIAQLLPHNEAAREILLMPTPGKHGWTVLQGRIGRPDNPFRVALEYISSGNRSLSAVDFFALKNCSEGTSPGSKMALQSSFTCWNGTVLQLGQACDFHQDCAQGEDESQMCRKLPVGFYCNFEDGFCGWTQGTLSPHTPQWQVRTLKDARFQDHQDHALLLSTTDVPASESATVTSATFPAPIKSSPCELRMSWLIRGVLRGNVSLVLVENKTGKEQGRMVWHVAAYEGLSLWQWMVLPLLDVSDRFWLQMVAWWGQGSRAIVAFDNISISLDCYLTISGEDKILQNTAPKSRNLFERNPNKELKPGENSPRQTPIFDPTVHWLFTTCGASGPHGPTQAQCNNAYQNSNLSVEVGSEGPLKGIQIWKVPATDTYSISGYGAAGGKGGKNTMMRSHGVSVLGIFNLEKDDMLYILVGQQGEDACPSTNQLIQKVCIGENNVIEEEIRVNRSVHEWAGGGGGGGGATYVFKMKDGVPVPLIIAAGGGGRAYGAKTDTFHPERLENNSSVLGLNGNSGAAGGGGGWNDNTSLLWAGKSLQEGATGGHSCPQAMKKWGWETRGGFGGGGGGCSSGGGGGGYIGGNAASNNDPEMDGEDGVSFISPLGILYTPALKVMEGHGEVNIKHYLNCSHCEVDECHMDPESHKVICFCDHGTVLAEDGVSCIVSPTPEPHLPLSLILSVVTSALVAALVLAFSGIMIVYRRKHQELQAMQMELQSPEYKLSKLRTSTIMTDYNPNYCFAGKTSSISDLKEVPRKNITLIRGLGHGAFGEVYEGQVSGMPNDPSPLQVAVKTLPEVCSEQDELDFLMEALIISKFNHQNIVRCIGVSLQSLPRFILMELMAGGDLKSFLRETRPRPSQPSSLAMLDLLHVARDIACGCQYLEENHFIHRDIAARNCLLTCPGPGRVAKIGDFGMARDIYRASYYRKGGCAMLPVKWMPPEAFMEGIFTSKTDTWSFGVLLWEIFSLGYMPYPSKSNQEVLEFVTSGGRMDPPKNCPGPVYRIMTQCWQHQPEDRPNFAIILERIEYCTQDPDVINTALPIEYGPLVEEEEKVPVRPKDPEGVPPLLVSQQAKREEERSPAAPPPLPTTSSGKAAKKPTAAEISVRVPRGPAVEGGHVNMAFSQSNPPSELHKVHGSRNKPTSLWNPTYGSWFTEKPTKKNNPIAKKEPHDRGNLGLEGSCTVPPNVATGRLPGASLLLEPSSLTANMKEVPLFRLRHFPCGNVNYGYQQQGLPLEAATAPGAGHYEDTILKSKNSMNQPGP

SMILES: Cc1ccc(Oc2ccnc3cc(-c4cnn(C5CCNCC5)c4)ccc23)cc1
- TDI: inactive
